Measured values as given in US8952024B2, “Herbicidal pyrimidone derivatives” (E I du Pont de Nemours and Company, priority 2009, dated 2015).

Legend:
Assay in all cases: Test D pre-/postemergence plant response
Type in all cases: in vivo
[1] = test system: black mustard (Brassica nigra)
In short: (§1)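 Ratings come from greenhouse-grown weeds in loam and sand treated pre- or postemergence (postemergence height 2 to 18 cm). Evaluation after 14–21 days, visual, relative to controls, on a 0–100 control scale.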

[2] = test system: spanishneedles (Bidens bipinnata)
In short: as §1

[3] = test system: groundsel (common groundsel, Senecio vulgaris); settings: Postemergence
In short: as §1

[4] = test system: Italian ryegrass (Lolium multiflorum)
In short: as §1

[5] = test system: bermudagrass (Cynodon dactylon)
In short: as §1

[6] = Postemergence, 16 g ai/ha, scale 0 to 100
[7] = Postemergence, 31 g ai/ha, scale 0 to 100 (0 no effect, 100 complete control)
[8] = Postemergence, 125 g ai/ha, scale 0 to 100 (0 no effect, 100 complete control)
[9] = Preemergence, 16 g ai/ha, scale 0 to 100, 0 no effect, 100 complete control
[10] = Preemergence, 31 g ai/ha, scale 0 to 100 (0 no effect, 100 complete control)
[11] = Preemergence, 62 g ai/ha, scale 0 to 100
[12] = Preemergence, 125 g ai/ha, scale 0 to 100
[13] = Postemergence, 31 g ai/ha, scale 0 to 100
[14] = Postemergence, 62 g ai/ha, scale 0 to 100 (0 no effect, 100 complete control)
[15] = 125 g ai/ha, scale 0 to 100 (0 no effect, 100 complete control)
[16] = 62 g ai/ha, scale 0 to 100 (0 no effect, 100 complete control)

SMILES	Plant response rating, Black Mustard [1, 6]	Plant response rating, Black Mustard [1, 8]	Plant response rating, Black Mustard [1, 9]	Plant response rating, Black Mustard [1, 10]	Plant response rating, Black Mustard [1, 11]	Plant response rating, Black Mustard [1, 12]	Plant response rating, Spanishneedles [2, 6]	Plant response rating, Spanishneedles [2, 13]	Plant response rating, Spanishneedles [2, 8]	Plant response rating, Spanishneedles [2, 14]	Plant response rating, Spanishneedles [2, 9]	Plant response rating, Spanishneedles [2, 10]	Plant response rating, Spanishneedles [2, 12]	Plant response rating, Groundsel ([3]; 31 g ai/ha, scale 0 to 100)	Plant response rating, Groundsel [3, 15]	Plant response rating, Groundsel [3, 16]	Plant response rating, Ryegrass, Italian [4, 6]	Plant response rating, Ryegrass, Italian [4, 13]	Plant response rating, Ryegrass, Italian [4, 8]	Plant response rating, Ryegrass, Italian [4, 14]	further results
Cc1ccc(F)c(-n2c(-c3ccccc3)ncc(C(=O)C3=C(O)CCCC3=O)c2=O)c1 [Compound 51]	70	100	0	50	75	100	35	50	70	60	0	0	98	98	100	100	0	0	0	0	Plant response rating, Black Mustard [1, 7]: 95; Plant response rating, Groundsel ([3]; 16 g ai/ha, scale 0 to 100): 85; Plant response rating, Ryegrass, Italian [4, 9]: 0; Plant response rating, Ryegrass, Italian [4, 10]: 0; Plant response rating, Ryegrass, Italian [4, 12]: 0; Plant response rating, Bermudagrass [5, 6]: 65; Plant response rating, Bermudagrass [5, 7]: 75; Plant response rating, Bermudagrass [5, 8]: 85; Plant response rating, Bermudagrass [5, 14]: 80; Plant response rating, Bermudagrass [5, 9]: 0; Plant response rating, Bermudagrass [5, 10]: 0; Plant response rating, Bermudagrass [5, 11]: 0; Plant response rating, Bermudagrass [5, 12]: 30
Cc1ccc(Cl)cc1-n1c(-c2ccccc2)ncc(C(=O)C2=C(O)CCCC2=O)c1=O [Compound 52]	65	98	0	20	80	100	75	75	80	80	35	70	98	100	100	100	0	0	35	15	Plant response rating, Black Mustard [1, 7]: 90; Plant response rating, Black Mustard [1, 14]: 98; Plant response rating, Groundsel ([3]; 16 g ai/ha, scale 0 to 100): 100; Plant response rating, Ryegrass, Italian [4, 9]: 0; Plant response rating, Ryegrass, Italian [4, 10]: 0; Plant response rating, Ryegrass, Italian [4, 12]: 15; Plant response rating, Bermudagrass [5, 6]: 75; Plant response rating, Bermudagrass [5, 7]: 75; Plant response rating, Bermudagrass [5, 8]: 80; Plant response rating, Bermudagrass [5, 14]: 75; Plant response rating, Bermudagrass [5, 9]: 30; Plant response rating, Bermudagrass [5, 10]: 70; Plant response rating, Bermudagrass [5, 11]: 90; Plant response rating, Bermudagrass [5, 12]: 100
O=C1CCCC(O)=C1C(=O)c1cnc(-c2cccs2)n(-c2ccccc2)c1=O [Compound 66]	0	98	0	5	35	80	65	70	80	80	0	60	95	60	80	80	0	0	15	0	Plant response rating, Black Mustard [1, 7]: 20; Plant response rating, Black Mustard [1, 14]: 50; Plant response rating, Ryegrass, Italian [4, 9]: 0; Plant response rating, Ryegrass, Italian [4, 10]: 0; Plant response rating, Ryegrass, Italian [4, 12]: 0; Plant response rating, Bermudagrass [5, 6]: 5; Plant response rating, Bermudagrass [5, 7]: 50; Plant response rating, Bermudagrass [5, 8]: 65; Plant response rating, Bermudagrass [5, 14]: 65; Plant response rating, Bermudagrass [5, 9]: 0; Plant response rating, Bermudagrass [5, 10]: 0; Plant response rating, Bermudagrass [5, 11]: 5; Plant response rating, Bermudagrass [5, 12]: 5
O=C1CCCC(O)=C1C(=O)c1cnc(C2CC2)n(-c2ccccc2)c1=O [Compound 87]	40	100	75	75	100	100	60	60	70	60	0	65	98	98	100	100	0	0	5	0	Plant response rating, Black Mustard [1, 7]: 65; Plant response rating, Black Mustard [1, 14]: 100; Plant response rating, Groundsel ([3]; 16 g ai/ha, scale 0 to 100): 98; Plant response rating, Ryegrass, Italian [4, 9]: 0; Plant response rating, Ryegrass, Italian [4, 10]: 0; Plant response rating, Ryegrass, Italian [4, 12]: 30; Plant response rating, Bermudagrass [5, 6]: 65; Plant response rating, Bermudagrass [5, 7]: 65; Plant response rating, Bermudagrass [5, 8]: 85; Plant response rating, Bermudagrass [5, 14]: 70; Plant response rating, Bermudagrass [5, 9]: 65; Plant response rating, Bermudagrass [5, 10]: 65; Plant response rating, Bermudagrass [5, 11]: 98; Plant response rating, Bermudagrass [5, 12]: 98
O=C1CCCC(O)=C1C(=O)c1cnc(-c2cccnc2)n(-c2ccccc2)c1=O [Compound 113, 5-[(2-hydroxy-6-oxo-1-cyclohexen-1-yl)carbonyl]-3-phenyl-2-(3-pyridinyl)-4(3H)-pyrimidone]	100	100	0	0	80	100	35	35	60	50	0	0	95	90	100	100	0	20	50	35	Plant response rating, Black Mustard [1, 14]: 100; Plant response rating, Groundsel ([3]; 16 g ai/ha, scale 0 to 100): 90; Plant response rating, Ryegrass, Italian [4, 9]: 0; Plant response rating, Ryegrass, Italian [4, 10]: 0; Plant response rating, Ryegrass, Italian [4, 12]: 20; Plant response rating, Ryegrass, Italian ([4]; Preemergence, rate not given, scale 0 to 100, 0 no effect, 100 complete control): 0; Plant response rating, Bermudagrass [5, 6]: 65; Plant response rating, Bermudagrass [5, 7]: 70; Plant response rating, Bermudagrass [5, 8]: 80; Plant response rating, Bermudagrass [5, 14]: 80; Plant response rating, Bermudagrass [5, 9]: 50; Plant response rating, Bermudagrass [5, 10]: 50; Plant response rating, Bermudagrass [5, 11]: 70; Plant response rating, Bermudagrass [5, 12]: 85
